According to ChEMBL document CHEMBL3045069, “Antifeedant activity of quinones from Ventilago madaraspatana” (2001):

Experiments:
Type in all cases: functional
[1] = test system: Henosepilachna vigintioctopunctata; test: Antifeedant activity against Henosepilachna vigintioctopunctata in Solanum nigrum leaves assessed as mean leaf area fed at 5 ug/cm'2 by dual choice leaf disk bioassay (reference value: 0.74 +/- 0.02 to 0.91 +/- 0.01 cm'2)
Spodoptera litura [2] = test: Antifeedant activity against Spodoptera litura in Ricinus communis leaves assessed as mean leaf area fed at 1 ug/cm'2 by dual choice leaf disc bioassay (reference value: 53 +/- 2.44 to 53.6 +/- 2.61 cm'2)
[3] = test system: Henosepilachna vigintioctopunctata; test: Antifeedant activity against Henosepilachna vigintioctopunctata in Solanum nigrum leaves assessed as mean leaf area fed by dual choice leaf disk bioassay; parameters: concentration or dose not given beside the values
Spodoptera litura [4] = test: Antifeedant activity against Spodoptera litura in Ricinus communis leaves assessed as mean leaf area fed by dual choice leaf disc bioassay; parameters: concentration or dose not given beside the values
[5] = test system: Henosepilachna vigintioctopunctata; test: Antifeedant activity against Henosepilachna vigintioctopunctata in Solanum nigrum leaves assessed as mean leaf area fed at 10 ug/cm'2 by dual choice leaf disk bioassay (reference value: 0.78 +/- 0.04 to 0.99 +/- 0.17 cm'2)
[6] = test system: Henosepilachna vigintioctopunctata; test: Antifeedant activity against Henosepilachna vigintioctopunctata in Solanum nigrum leaves assessed as mean leaf area fed at 1 ug/cm'2 by dual choice leaf disk bioassay (reference value: 0.75 +/- 0.06 to 0.92 +/- 0.05 cm'2)
Spodoptera litura [7] = test: Antifeedant activity against Spodoptera litura in Ricinus communis leaves assessed as mean leaf area fed at 10 ug/cm'2 by dual choice leaf disc bioassay (reference value: 52.8 +/- 2.50 to 53.6 +/- 4.76 cm'2)
Spodoptera litura [8] = test: Antifeedant activity against Spodoptera litura in Ricinus communis leaves assessed as mean leaf area fed at 5 ug/cm'2 by dual choice leaf disc bioassay (reference value: 52.6 +/- 1.34 to 55.6 +/- 3.71 cm'2)

Row | SMILES | Activity [1] [cm2] | Activity (Spodoptera litura [2]) [cm2] | Activity [3] [%] | Activity (Spodoptera litura [4]) [%] | Activity [5] [cm2] | Activity [6] [cm2] | Activity (Spodoptera litura [7]) [cm2] | Activity (Spodoptera litura [8]) [cm2]
1 | C/C=C(\C)C(=O)O[C@H]1C[C@@H](OC(C)=O)[C@@]2(C(=O)OC)CO[C@H]3[C@@H](O)[C@@](C)([C@]45O[C@@]4(C)[C@H]4C[C@@H]5O[C@@H]5OC=C[C@@]54O)[C@H]4[C@]1(CO[C@]4(O)C(=O)OC)[C@@H]32 [AZADIRACTIN] | 0.2 | 20.3 | 56 | 60 | 0.05 | 0.4 | 5 | 13.5
2 | Cc1cc(O)c2c(c1)C(=O)c1cccc(O)c1C2=O [CHRYSOPHANOL] | 0.43 | 40.4 | 26 | 20 | 0.25 | 0.61 | 13.6 | 24
3 | Cc1cc(O)c2c(c1)C(=O)c1cc(O)cc(O)c1C2=O [EMODIN] | 0.3 | 33.2 | 44 | 31 | 0.13 | 0.48 | 11 | 20.5
4 | COc1cc(O)c2c(c1)C(=O)c1cc(C)cc(O)c1C2=O [PHYSCION] | 0.32 | 33.4 | 34 | 30 | 0.15 | 0.52 | 11.3 | 21.6
5 | COc1c2c(c(O)c3c1C(=O)c1coc(C)c1C3=O)OCO2 [VENTILONE B] | 0.37 | 34.9 | 31 | 27 | 0.19 | 0.56 | 13 | 23
6 | COc1c2c(c(O)c3c1C(=O)C1=C(C[C@H](C)O[C@@H]1C)C3=O)OCO2 [VENTILOQUINONE A] | 0.28 | 25.2 | 47 | 40 | 0.07 | 0.46 | 7.2 | 19.8
7 | COc1c2c(c(OC)c3c1C(=O)C1=C(C3=O)[C@@H](C)O[C@@H](C)C1)OCO2 [VENTILOQUINONE B] | 0.34 | 33.8 | 32 | 29 | 0.17 | 0.54 | 11.6 | 22.5
8 | COc1cc(OC)c2c(c1OC)C(=O)C1=C(C2=O)[C@@H](C)O[C@@H](C)C1 [VENTILOQUINONE E] | 0.39 | 35.1 | 29 | 25 | 0.21 | 0.58 | 13.3 | 23.3
